How the values were obtained:
[1] = Dose normalized AUC (0 to t) in Sprague-Dawley rat at 5 to 10 mg/kg, po administered as cassette dose measured upto 24 hrs by LC-MS analysis; assay type: ADME, organism-based; conditions: in vivo, dose 5-10 mg/kg
[2] = Half life in Sprague-Dawley rat at 5 to 10 mg/kg, po administered as cassette dose measured upto 24 hrs by LC-MS analysis; assay type: ADME, organism-based; conditions: in vivo, dose 5-10 mg/kg
[3] = Cmax in Sprague-Dawley rat at 5 to 10 mg/kg, po administered as cassette dose measured upto 24 hrs by LC-MS analysis; assay type: ADME, organism-based; set-up: time < 24 hrs, route po; conditions: in vivo, dose 5-10 mg/kg
[4] = AUC (0 to t) in Sprague-Dawley rat at 5 to 10 mg/kg, po administered as cassette dose measured upto 24 hrs by LC-MS analysis; assay type: ADME, organism-based; set-up: time < 24 hrs, route po; conditions: in vivo, dose 5-10 mg/kg
[5] = Tmax in Sprague-Dawley rat at 5 to 10 mg/kg, po administered as cassette dose measured upto 24 hrs by LC-MS analysis; assay type: ADME, organism-based; conditions: in vivo, dose 5-10 mg/kg
[6] = biological target: T1, Tyrosine-protein kinase BTK (Homo sapiens, UniProt Q06187); assay: Induction of BTK degradation in human MINO cells incubated for 24 hrs by Western blot; assay type: cell-based; conditions: dose 1-1000 nM, DDE = dose-dependent effect
[7] = biological target: T1, Tyrosine-protein kinase BTK; assay: Inhibition of BTK (unknown origin)
[8] = tested on: JeKo-1; assay: cells; conditions: Homo sapiens
[9] = tested on: JeKo-1; assay: cells; conditions: Homo sapiens; remark: listed apart in the source
[10] = Tmax in ICR mouse at 100 mg/kg, po measured upto 48 hrs by LC/MS analysis; assay type: ADME, organism-based; conditions: in vivo
[11] = Half life in ICR mouse at 100 mg/kg, po measured upto 48 hrs by LC/MS analysis; assay type: ADME, organism-based; conditions: in vivo
[12] = AUC (0 to infinity) in ICR mouse at 100 mg/kg, po measured upto 48 hrs by LC/MS analysis; assay type: ADME, organism-based; set-up: time < 48 hrs, dose 100 mg/kg, route po; conditions: in vivo
[13] = AUC (0 to t) in ICR mouse at 100 mg/kg, po measured upto 48 hrs by LC/MS analysis; assay type: ADME, organism-based; set-up: time < 48 hrs, dose 100 mg/kg, route po; conditions: in vivo
[14] = Cmax in ICR mouse at 100 mg/kg, po measured upto 48 hrs by LC/MS analysis; assay type: ADME, organism-based; set-up: dose 100 mg/kg, time < 48 hrs, route po; conditions: in vivo

T1 sequence (Q06187 whole entry): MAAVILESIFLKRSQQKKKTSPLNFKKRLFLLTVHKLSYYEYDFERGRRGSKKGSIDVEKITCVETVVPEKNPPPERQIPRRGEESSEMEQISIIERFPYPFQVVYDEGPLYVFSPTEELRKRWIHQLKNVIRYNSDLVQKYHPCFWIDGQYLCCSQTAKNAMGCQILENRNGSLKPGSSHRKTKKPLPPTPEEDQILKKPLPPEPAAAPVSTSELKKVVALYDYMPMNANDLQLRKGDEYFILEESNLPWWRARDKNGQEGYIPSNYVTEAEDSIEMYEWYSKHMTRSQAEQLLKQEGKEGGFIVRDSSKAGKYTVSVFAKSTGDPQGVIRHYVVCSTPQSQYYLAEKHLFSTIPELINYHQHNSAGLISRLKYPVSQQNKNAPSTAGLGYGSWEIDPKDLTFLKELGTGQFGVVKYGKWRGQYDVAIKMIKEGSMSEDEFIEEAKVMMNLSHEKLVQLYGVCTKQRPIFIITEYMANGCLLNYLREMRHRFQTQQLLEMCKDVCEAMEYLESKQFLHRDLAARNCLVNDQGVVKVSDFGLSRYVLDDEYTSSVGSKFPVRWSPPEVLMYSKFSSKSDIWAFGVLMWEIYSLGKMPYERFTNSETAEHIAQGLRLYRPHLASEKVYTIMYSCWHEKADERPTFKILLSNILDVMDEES

AUCt/dose [1] [ng·h/mL/mg]	half-life [2] [h]	Cmax [3] [ng/mL]	AUC(0-t) at 24 h [4] [ng·h/mL]	Tmax [5] [h]	Activity [6]	IC50 [7] [nM]	IC50 [8] [nM]	IC50 [9] [nM]	Tmax [10] [h]	half-life [11] [h]	AUC(0-inf) [12] [ng·h/mL]	AUC(0-t) at 48 h [13] [ng·h/mL]	Cmax [14] [ng/mL]	Structure (SMILES)
65	17.7	24	328	3.7										O=C1CCC(N2C(=O)c3cccc(NCCN4CCN(CC#CCOc5ccc(C(F)(F)F)cc5)CC4)c3C2=O)C(=O)N1 (configuration not stated)
6	2	29	58	0.5	Dde	9								Nc1ncnc2c1c(-c1ccc(Oc3ccccc3)cc1)nn2[C@@H]1CCCN(C(=O)[C@H]2CCCC[C@H]2C(=O)N2CCN(CC#Cc3ccc4c(c3)CN(C3CCC(=O)NC3=O)C4=O)CC2)C1 (some centres not stated)
2	0.8	16	24	0.6	Dde	9	1940	> 20000						Nc1ncnc2c1c(-c1ccc(Oc3ccccc3)cc1)nn2[C@@H]1CCCN(C(=O)[C@H]2CC[C@H](C(=O)N3CCN(CC#Cc4ccc5c(c4)CN(C4CCC(=O)NC4=O)C5=O)CC3)CC2)C1 (some centres not stated)
708	8.6	1050	7080	1.2										O=C1CCC(N2C(=O)c3ccc(N4CCN(C5CN(CC#CCOc6ccc(C(F)(F)F)cc6)C5)CC4)cc3C2=O)C(=O)N1 (configuration not stated)
					Dde	9								Nc1ncnc2c1c(-c1ccc(Oc3ccccc3)cc1)nn2[C@@H]1CCCN(C(=O)CCC(=O)NCC#CCN2CCN(CC#Cc3ccc4c(c3)CN(C3CCC(=O)NC3=O)C4=O)CC2)C1 (some centres not stated)
					Dde	9								Nc1ncnc2c1c(-c1ccc(Oc3ccccc3)cc1)nn2[C@@H]1CCCN(C(=O)CCCCC(=O)NCC#CCN2CCN(CC#Cc3ccc4c(c3)CN(C3CCC(=O)NC3=O)C4=O)CC2)C1 (some centres not stated)
116	5.3	71	1160	4.7										O=C1CCC(N2C(=O)c3cccc(N4CCN(C5CCN(CCCCOc6ccc(C(F)(F)F)cc6)CC5)CC4)c3C2=O)C(=O)N1 (configuration not stated)
11	1.5	69	112	0.5	Dde	9								Nc1ncnc2c1c(-c1ccc(Oc3ccccc3)cc1)nn2[C@@H]1CCCN(C(=O)[C@H]2CC[C@H](C(=O)NCC#CCN3CCN(CC#Cc4ccc5c(c4)CN(C4CCC(=O)NC4=O)C5=O)CC3)CC2)C1 (some centres not stated)
194	14	200	1940	2.8										O=C1CCC(N2C(=O)c3ccc(N4CCN(CC#CCN5CCN(c6ccc(C(F)(F)F)cc6)CC5)CC4)cc3C2=O)C(=O)N1 (configuration not stated)
2	1.5	15	20	0.6	Dde	9								Nc1ncnc2c1c(-c1ccc(Oc3ccccc3)cc1)nn2[C@@H]1CCCN(C(=O)/C=C/C(=O)NCC#CCN2CCN(CC#Cc3ccc4c(c3)CN(C3CCC(=O)NC3=O)C4=O)CC2)C1 (some centres not stated)
					Dde	9								Nc1ncnc2c1c(-c1ccc(Oc3ccccc3)cc1)nn2[C@@H]1CCCN(C(=O)CCCCCCC(=O)NCC#CCN2CCN(CC#Cc3ccc4c(c3)CN(C3CCC(=O)NC3=O)C4=O)CC2)C1 (some centres not stated)
796		1250	7960	8.5										O=C1CCC(N2Cc3ccc(C#CCN4CCN(CC#CCOc5ccc(C(F)(F)F)cc5)CC4)cc3C2=O)C(=O)N1 (configuration not stated)
435	8.9	419	4350	11										O=C1CCC(N2C(=O)c3cccc(N4CCN(CC5CCN(CC#CCOc6ccc(C(F)(F)F)cc6)CC5)CC4)c3C2=O)C(=O)N1 (configuration not stated)
128	5.7	232	49	0.3										O=C1CCC(N2Cc3c(OC4CN(CC#CCN5CCN(c6ccc(C(F)(F)F)cc6)CC5)C4)cccc3C2=O)C(=O)N1 (configuration not stated)
47	2.2	99	236	0.3										O=C1CCC(N2Cc3cc(CCCN4CCN(CC#CCOc5ccc(C(F)(F)F)cc5)CC4)ccc3C2=O)C(=O)N1 (configuration not stated)
1527	4	1050	15300	6.7										O=C1CCC(N2Cc3cc(C#CCN4CCN(c5ccc(C(F)(F)F)cc5)CC4)ccc3C2=O)C(=O)N1 (configuration not stated)
253	2.3	782	2530	0.9	Dde	9								Nc1ncnc2c1c(-c1ccc(Oc3ccccc3)cc1)nn2[C@@H]1CCCN(C(=O)C2(C(=O)N3CCN(CC#Cc4ccc5c(c4)CN(C4CCC(=O)NC4=O)C5=O)CC3)CC2)C1 (some centres not stated)
15	1.7	77	145	0.3	Dde	9								Nc1ncnc2c1c(-c1ccc(Oc3ccccc3)cc1)nn2[C@@H]1CCCN(C(=O)C2(C(=O)NCC#CCN3CCN(CC#Cc4ccc5c(c4)CN(C4CCC(=O)NC4=O)C5=O)CC3)CC2)C1 (some centres not stated)
172	10.3	194	1720	0.9										O=C1CCC(N2C(=O)c3cccc(N4CCN(CC#CCN5CCN(c6ccc(C(F)(F)F)cc6)CC5)CC4)c3C2=O)C(=O)N1 (configuration not stated)
143	9.7	269	142	1.2										O=C1CCC(N2C(=O)c3cccc(N4CCN(C5CCN(CC#CCOc6ccc(C(F)(F)F)cc6)CC5)CC4)c3C2=O)C(=O)N1 (configuration not stated)
25	1.4	125	247	0.6	Dde	9	792	> 20000	0.7	1	81	62	52	Nc1ncnc2c1c(-c1ccc(Oc3ccccc3)cc1)nn2[C@@H]1CCCN(C(=O)[C@H]2CCCC[C@H]2C(=O)NCC#CCN2CCN(CC#Cc3ccc4c(c3)CN(C3CCC(=O)NC3=O)C4=O)CC2)C1 (some centres not stated)
281	3.4	223	2810	10										O=C1CCC(N2C(=O)c3ccc(N4CCN(C5CN(CCCCOc6ccc(C(F)(F)F)cc6)C5)CC4)cc3C2=O)C(=O)N1 (configuration not stated)
					Dde	9	296	4960						Nc1ncnc2c1c(-c1ccc(Oc3ccccc3)cc1)nn2[C@@H]1CCCN(C(=O)/C=C/C(=O)N2CCN(CC#Cc3ccc4c(c3)CN(C3CCC(=O)NC3=O)C4=O)CC2)C1 (some centres not stated)
113	112	68	1130	10.7										O=C1CCC(N2C(=O)c3cccc(N4CCN(CC5CCN(CCCCOc6ccc(C(F)(F)F)cc6)CC5)CC4)c3C2=O)C(=O)N1 (configuration not stated)
1524	6	1550	15200	8.3										O=C1CCC(N2Cc3cc(C#CCN4CCN(CC#CCOc5ccc(C(F)(F)F)cc5)CC4)ccc3C2=O)C(=O)N1 (configuration not stated)
